The test system of series [1] is Mtb growth in J774 macrophage-like cells. Kind of series: J774 infection in 96-well plates, mKO fluorescence 6 days post-infection. The class given is cell-based, Mycobacterium tuberculosis. The settings on record: for Inhibition of Mtb growth in J774 cells: 10 μM, 6 days post-infection; for % Growth: Fig. 2D, DMSO = 100. The protocol:
For J774 infection in 96-well plates, 1.8 × 10^5 J774 cells were seeded per well in 180 μl of J774 infection media 1 day prior to infection. On the day of the assay, log-phase Mtb constitutively expressing mKO were pelleted and resuspended in 1 ml basal uptake buffer, passed 6× through a tuberculin syringe with a 25 G × 5/8″ needle, then resuspended in J774 infection media to a final OD600 = 0.2. Media was removed from 96-well plate containing the J774 cells, with 140 μl of fresh J774 infection media added back to each well. A volume of 40 μl of the Mtb suspension at OD600 = 0.2 was added to each well, followed by addition of appropriate concentration of compound or DMSO in a 20-μl final volume in J774 infection media (compound final concentration 10 μM, rifampicin final concentration 5 μM, DMSO final concentration 0.1%/well). Bacterial mKO fluorescence was read immediately after infection using a Biotek Synergy Neo2 microplate reader (bottom read monochromator, excitation 543/10 nm, emission 565/10 nm), and again 6 days post-infection. Plates were kept in humidified ziplock bags in a 37°C, 5% CO2 incubator. mKO fluorescence in DMSO-treated control samples were defined as 100% growth, and fluorescence observed in treatment conditions calculated as a percentage from that set value.

Series [2] relates to CDC1551(rv2390c′::GFP) reporter Mtb strain. The settings on record: for Normalized % induction: Fig. 2C, DMSO = 100; for Ability to increase rv2390c′::GFP reporter signal in high [Cl−]: pH 7.
For series [3], the system named is Mtb. Kind of series: Mtb growth assay in cholesterol medium (OD600). The settings on record: for Inhibition of Mtb growth in cholesterol media: 10 μM, OD600 over 12 days; for OD600: Fig. 2G.
Description: (§1) Bacterial growth was tracked by measuring OD600 every 3 days for 12 days. […] Bacterial growth was tracked by measurement of OD600 every 3 days over 12 days.
The test system of series [4] is Mtb. Put plainly: Mtb growth assay in standard 7H9 medium (OD600). The settings on record: Fig. 2F.
Description: as §1
Series [5] has as its system WT Mtb (Erdman) in primary murine BMDMs. Kind of series: Primary murine bone marrow-derived macrophage infection, CFU. The class given is cell-based, Mycobacterium tuberculosis. The settings on record: for Effect on bacterial load / Mtb growth in primary murine BMDMs: 10 μM, 8-day infection time course, vs DMSO; for CFU/ml: Fig. 2E, 10 µM. The protocol:
C57BL/6J wild-type mice (Jackson Laboratories) were used for extraction of BMDMs. Cells were harvested and expanded in DMEM containing 10% FBS, 15% L-cell conditioned media, 2 mM L-glutamine, 1 mM sodium pyruvate, and penicillin/streptomycin as needed in a 37°C incubator in a 5% CO2 atmosphere. […] Macrophages were lysed with water containing 0.01% sodium dodecyl sulfate and a dilution series of the samples plated on 7H10 agar for CFU determination.

For the next series, the system named is Mtb CDC1551. Put plainly: Intrabacterial drug accumulation assay (LC-MS). The settings on record: 24-hour exposure, 7H9 pH 7 ± 250 mM NaCl.
The next series concerns J774 cells. Put plainly: Intracellular drug accumulation assay in J774 cells (LC-MS). The settings on record: for Intracellular accumulation in J774 cells: 24 hours; for nmol/106 cells: Fig. 3F.
A further series has as its system Mtb-infected J774 cells. The settings on record: for nmol/106 cells: Fig. 3F.
For series [6], the system named is CDC1551(rv2390c′::GFP) reporter Mtb strain, response to high [Cl−]. Kind of series: microbe, parasite or virus in culture. Type of series: cell-based, Mycobacterium tuberculosis. The settings on record: primary screen, 10 µM.
In series [7] the test system is Mtb growth in cholesterol media. Details: method as in PubChem AID 1259343. The settings on record: ref PubChem AID 1259343; cited from earlier work.

Structures are written as SMILES. “And” between values parts separate entries of the source, which are not always exact repeats. Equal values may be shown once. Read-outs that look alike come from different tables or passages of the source.

Consider `CCSc1ncc(CN2CCN(c3nc4ccccc4s3)CC2)cn1` [JSF-4298, 2-(4-((2-(ethylthio)pyrimidin-5-yl)methyl)piperazin-1-yl)benzo[d]thiazole], for which the “Inhibition of Mtb growth in J774 cells” value in series [1] is given as “continuing to demonstrate the phenotypes seen with the parental C6 compound”. Also, the “% Growth” value in series [1] (average of 4 replicates) was 72.2652%; in series [1] (individual replicates) it was 65.6342% and 77.3722% and 76.7437% and 69.3109%. Further, the Normalized % induction in series [2] (average of 3 replicates) is 128.692%; in [2] (individual replicates), 127.109% and 127.993% and 130.974%. For the same compound, the “Ability to increase rv2390c′::GFP reporter signal in high [Cl−]” value in series [2] was “continuing to demonstrate the phenotypes seen with the parental C6 compound”. For the same compound, the “Inhibition of Mtb growth in cholesterol media” value in the series on Mtb [3] is listed as “continuing to demonstrate the phenotypes seen with the parental C6 compound”. The OD600 with Mtb [3] (day 3, average) is 0.06; with Mtb [3] (day 3, individual replicates), 0.06; in the series with Mtb [3] (day 6, average) it was 0.09333; in the series with Mtb [3] (day 6, individual replicates) it was 0.08 and 0.1 (2×); in the series on Mtb [3] (day 9, average), 0.1333; with Mtb [3] (day 9, individual replicates), 0.14 (2×) and 0.12. Further, the OD600 in the series with Mtb [3] (day 12, average) is 0.1533; in the series with Mtb [3] (day 12, individual replicates), 0.16 (2×) and 0.14; with Mtb [4] (day 3, average), 0.1867; in the series on Mtb [4] (day 3, individual replicates), 0.2 and 0.18 (2×); in the series with Mtb [4] (day 6, average), 0.38; with Mtb [4] (day 6, individual replicates), 0.36 and 0.38 and 0.4. For the same compound, the OD600 with Mtb [4] (day 9, average) was 0.5067; in the series with Mtb [4] (day 9, individual replicates), 0.5 (2×) and 0.52; with Mtb [4] (day 12, average), 0.6467; in the series with Mtb [4] (day 12, individual replicates) it was 0.64 (2×) and 0.66.

As to `COc1ncc(CN2CCN(c3nc4ccccc4o3)CC2)cn1` [JSF-4271, 2-(4-((2-methoxypyrimidin-5-yl)methyl)piperazin-1-yl)benzo[d]oxazole], in series [1], the “Inhibition of Mtb growth in J774 cells” value is recorded as “loss of the ability to inhibit Mtb growth”. Also, the “% Growth” value is 107.949% in [1] (average of 4 replicates); 101.522% and 116.46% and 111.935% and 101.878% in series [1] (individual replicates). Further, in [5], the “Effect on bacterial load / Mtb growth in primary murine BMDMs” value is recorded as “loss of the ability to inhibit Mtb growth”. The CFU/ml in [5] (day 2, average) was 489333 CFU/ml; in series [5] (day 2, individual replicates) it was 446000 CFU/ml and 482000 CFU/ml and 540000 CFU/ml; in series [5] (day 4, average), 960000 CFU/ml; in series [5] (day 4, individual replicates), 1040000 CFU/ml and 1100000 CFU/ml and 740000 CFU/ml; in series [5] (day 6, average) it was 2286667 CFU/ml; in [5] (day 6, individual replicates), 1960000 CFU/ml and 2060000 CFU/ml and 2840000 CFU/ml. Moreover, the CFU/ml in series [5] (day 8, average) was 6800000 CFU/ml; in series [5] (day 8, individual replicates), 6000000 CFU/ml and 5400000 CFU/ml and 9000000 CFU/ml. For the same compound, the Normalized % induction in series [2] (average of 3 replicates) is 98.3426%; in series [2] (individual replicates) it was 93.208% and 98.8641% and 102.956%. In addition, the “Ability to increase rv2390c′::GFP reporter signal in high [Cl−]” value in series [2] is given as “lost the ability”. In addition, the “Inhibition of Mtb growth in cholesterol media” value in the series on Mtb [3] was “no longer inhibited Mtb growth”. For the same compound, the OD600 in the series with Mtb [3] (day 3, average) was 0.1; with Mtb [3] (day 3, individual replicates), 0.1; in the series with Mtb [3] (day 6, average) it was 0.28; in the series with Mtb [3] (day 6, individual replicates), 0.3 (2×) and 0.24; with Mtb [3] (day 9, average) it was 0.4467; in the series on Mtb [3] (day 9, individual replicates), 0.46 (2×) and 0.42. Moreover, the OD600 was 0.52 in the series with Mtb [3] (day 12, average); 0.52 and 0.5 and 0.54 in the series on Mtb [3] (day 12, individual replicates); 0.2 in the series with Mtb [4] (day 3, average); 0.2 and 0.22 and 0.18 in the series with Mtb [4] (day 3, individual replicates); 0.4067 with Mtb [4] (day 6, average); 0.42 (2×) and 0.38 with Mtb [4] (day 6, individual replicates). The OD600 in the series on Mtb [4] (day 9, average) is 0.5267; with Mtb [4] (day 9, individual replicates), 0.54 (2×) and 0.5; in the series with Mtb [4] (day 12, average), 0.6733; in the series with Mtb [4] (day 12, individual replicates), 0.68 (2×) and 0.66. Moreover, the “Intrabacterial accumulation in Mtb” value in the series with Mtb CDC1551 is on record as “decreased accumulation”. Further, the “Intracellular accumulation in J774 cells” value with J774 cells is recorded as “minimal accumulation”. For the same compound, in the series on Mtb-infected J774 cells (10 μM, 24 hours, 5 days post-infection), the “Accumulation in Mtb-infected J774 cells” value was “minimal accumulation”.

As for `c1ccc2oc(N3CCN(Cc4ccc(C5CCCO5)s4)CC3)nc2c1` (stereo not drawn) [PubChem SID: 340463409, reference compound], the “Dysregulation of Mtb Cl− response in original rv2390c′::GFP screen” value in series [6] is reported as “did not demonstrate dysregulation”. In addition, the “Call in screen for inhibition of Mtb growth in cholesterol media” value in series [7] is on record as “having antitubercular activity in cholesterol media”.

Regarding `c1ccc2oc(N3CCN(Cc4cncnc4)CC3)nc2c1` [JSF-4297, 2-(4-(pyrimidin-5-ylmethyl)piperazin-1-yl)benzo[d]oxazole], the “Inhibition of Mtb growth in J774 cells” value in series [1] is “loss of the ability to inhibit Mtb growth”. The “% Growth” value in series [1] (average of 4 replicates) was 108.514%; in series [1] (individual replicates), 102.242% and 116.384% and 110.602% and 104.828%. For the same compound, the “Effect on bacterial load / Mtb growth in primary murine BMDMs” value in series [5] was “loss of the ability to inhibit Mtb growth”. Further, the Normalized % induction in [2] (average of 3 replicates) is 100.379%; in series [2] (individual replicates) it was 88.9158% and 107.146% and 105.074%. In series [2], the “Ability to increase rv2390c′::GFP reporter signal in high [Cl−]” value is given as “lost the ability”. Further, the “Inhibition of Mtb growth in cholesterol media” value in the series on Mtb [3] is recorded as “no longer inhibited Mtb growth”. For the same compound, the OD600 in the series with Mtb [3] (day 3, average) was 0.09333; in the series on Mtb [3] (day 3, individual replicates) it was 0.1 (2×) and 0.08; in the series on Mtb [3] (day 6, average), 0.3133; in the series on Mtb [3] (day 6, individual replicates), 0.32 (2×) and 0.3; in the series with Mtb [3] (day 9, average), 0.4533; in the series on Mtb [3] (day 9, individual replicates) it was 0.46 (2×) and 0.44. The OD600 with Mtb [3] (day 12, average) is 0.5; in the series with Mtb [3] (day 12, individual replicates) it was 0.48 and 0.5 and 0.52; with Mtb [4] (day 3, average), 0.1933; with Mtb [4] (day 3, individual replicates), 0.18 (2×) and 0.22; with Mtb [4] (day 6, average), 0.4; in the series on Mtb [4] (day 6, individual replicates), 0.4 and 0.42 and 0.38. Further, the OD600 was 0.5467 with Mtb [4] (day 9, average); 0.56 (2×) and 0.52 in the series on Mtb [4] (day 9, individual replicates); 0.7 in the series on Mtb [4] (day 12, average); 0.7 and 0.72 and 0.68 in the series on Mtb [4] (day 12, individual replicates). Also, the “Intracellular accumulation in J774 cells” value with J774 cells is on record as “no detectable accumulation”. Also, the nmol/106 cells in the series with J774 cells (Experiment 1 - J774, average) came out at 0 nmol/106 cells; in the series with J774 cells (Experiment 1 - J774, individual replicates) it was 0 nmol/106 cells; in the series on J774 cells (Experiment 2 - J774, average), 0 nmol/106 cells; with J774 cells (Experiment 2 - J774, individual replicates), 0 nmol/106 cells; in the series on J774 cells (Experiment 3 - J774, average) it was 0 nmol/106 cells; with J774 cells (Experiment 3 - J774, individual replicates), 0 nmol/106 cells. Moreover, the nmol/106 cells was 0.006771 nmol/106 cells in the series on Mtb-infected J774 cells (Experiment 1 - Mtb-infected J774, average); 0.007341 nmol/106 cells and 0.006486 nmol/106 cells (2×) in the series on Mtb-infected J774 cells (Experiment 1 - Mtb-infected J774, individual replicates); 0.007288 nmol/106 cells with Mtb-infected J774 cells (Experiment 2 - Mtb-infected J774, average); 0.039 nmol/106 cells with Mtb-infected J774 cells (Experiment 3 - Mtb-infected J774, average); 0.03001 nmol/106 cells and 0.048 nmol/106 cells in the series with Mtb-infected J774 cells (Experiment 3 - Mtb-infected J774, individual replicates).

The values above are taken from article PMC8351955, “Targeting Mycobacterium tuberculosis response to environmental cues for the development of effective antitubercular drugs” (PLoS Biology, 2021).
